Results published in ChEMBL document CHEMBL1201862, “PubChem BioAssay data set” (2004).
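Results reflect a 48-hour exposure of cells in 96-well plates to compound at five concentrations. The concentration for 50% growth inhibition is given as GI50.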 Active and inactive are the calls of the source. Cut-off read from the data, not from the text of the source: active = GI50 up to about 1.1 µM and inactive = higher.

Columns and labels:
Assay in all cases: growth of human tumour cells (NCI), 48 h
NCI-H460 = system: NCI-H460
MCF7 = system: MCF7
OVCAR-8 = system: OVCAR-8
SR = system: SR
RXF 393 = system: RXF 393
SNB-19 = system: SNB-19
BT-549 = system: BT-549
SN12C = system: SN12C
HT-29 = system: HT-29
A498 = system: A498
EKVX = system: EKVX
CAKI-1 = system: CAKI-1
NCI/ADR-RES = system: NCI/ADR-RES
Malme-3M = system: Malme-3M
HL-60 = system: HL-60
UACC-62 = system: UACC-62
OVCAR-3 = system: OVCAR-3
HOP-62 = system: HOP-62
SK-OV-3 = system: SK-OV-3

Measured: GI50

CC1=NN(c2cc(Cl)c(S(=O)(=O)O)cc2Cl)C2(C1)C(Cl)C(=O)N2c1nc2ccccc2s1 (configuration not stated)
inactive: NCI-H460 > 100 µM | MCF7 46.2 µM | OVCAR-8 86.9 µM | SR 89.9 µM | RXF 393 > 100 µM | SNB-19 > 100 µM | BT-549 > 100 µM | SN12C > 100 µM | HT-29 > 100 µM | A498 80 µM | EKVX 44.9 µM | CAKI-1 > 100 µM | NCI/ADR-RES > 100 µM | Malme-3M > 100 µM | HL-60 > 100 µM | UACC-62 71 µM

Nc1ccn(C2OC(C(OC3OC(CO)C(O)C(N)C3O)C(O)C(O)C(O)C(O)CO)C(N)C(O)C2O)c(=O)n1 (configuration not stated)
inactive: NCI-H460 22 µM | MCF7 > 100 µM | OVCAR-8 81.5 µM | SR 19.9 µM | SNB-19 47.3 µM | BT-549 31.3 µM | OVCAR-3 22.4 µM | SN12C > 100 µM | HOP-62 20.7 µM | HT-29 > 100 µM | A498 > 100 µM | EKVX > 100 µM | CAKI-1 61 µM | NCI/ADR-RES 49.1 µM | HL-60 > 100 µM | UACC-62 71 µM

CC(C)(C)c1cc(C(C)(C)C)c2sc(=O)oc2c1O
inactive: NCI-H460 5.61 µM | MCF7 12.6 µM | OVCAR-8 16.3 µM | SR 4.98 µM | RXF 393 11.9 µM | SNB-19 17.3 µM | BT-549 18.7 µM | SK-OV-3 19.5 µM | OVCAR-3 11.8 µM | SN12C 12.4 µM | HOP-62 17 µM | HT-29 17.4 µM | A498 13.7 µM | EKVX 15 µM | CAKI-1 12.4 µM | NCI/ADR-RES 16.3 µM | Malme-3M 16.5 µM | HL-60 5.6 µM

Oc1c(C2=N[C@H]3CCCC[C@@H]3N2)ccc2ccccc12
inactive: NCI-H460 > 100 µM | MCF7 > 100 µM | OVCAR-8 > 100 µM | SR > 100 µM | SNB-19 > 40.8 µM | BT-549 > 100 µM | SK-OV-3 > 100 µM | OVCAR-3 > 100 µM | SN12C > 100 µM | HOP-62 > 44.7 µM | HT-29 > 100 µM | A498 > 100 µM | EKVX > 68.2 µM | CAKI-1 > 100 µM | NCI/ADR-RES > 47.6 µM | Malme-3M > 100 µM | HL-60 > 100 µM | UACC-62 > 100 µM

OC(c1ccco1)C(F)(F)c1nc2ccccc2o1 (configuration not stated)
inactive: NCI-H460 > 100 µM | MCF7 41.1 µM | OVCAR-8 > 100 µM | SR > 100 µM | RXF 393 > 100 µM | SNB-19 > 100 µM | BT-549 > 100 µM | SK-OV-3 68.4 µM | HOP-62 > 100 µM | HT-29 > 100 µM | A498 62.1 µM | EKVX > 100 µM | CAKI-1 > 100 µM | NCI/ADR-RES > 100 µM | HL-60 > 100 µM | UACC-62 > 100 µM

C=CCC(CNC(=O)OCc1ccccc1)O[Si](C)(C)C(C)(C)C (configuration not stated)
inactive: NCI-H460 25.6 µM | MCF7 22.3 µM | OVCAR-8 45.3 µM | SR 18.5 µM | RXF 393 17.3 µM | SNB-19 40.3 µM | BT-549 55 µM | SK-OV-3 61.5 µM | OVCAR-3 31.6 µM | SN12C 31.2 µM | HOP-62 38.5 µM | HT-29 18 µM | A498 38.8 µM | EKVX 25.4 µM | CAKI-1 29.4 µM | NCI/ADR-RES 36.9 µM | HL-60 20.1 µM | UACC-62 23.2 µM
